Laboratory results reported in paper PMC6009935 (Journal of Enzyme Inhibition and Medicinal Chemistry, 2017).
Like-named read-outs stand apart in the source and are kept apart here.

Experiments:
G-protein = assay: Functional [35S]GTPγS binding assay on rat brain membrane homogenates; type: biochemical; conditions: rat brain membrane homogenates; for Emax ± S.E.M. (maximal G-protein efficacy): basal activity = 100%; for LogEC50 ± S.E.M. (ligand potency): logarithm of EC50, negative sign printed
Description: The experiments were performed by [35S]GTPγS binding assays to control the GDP to GTP exchange of the α-subunit of Gi-protein. […] We examined the opioid receptor binding affinity of 5 in competition binding experiments, using opioid receptor selective radioligands. […]
Functional [35S]GTPγS binding experiments
The functional [35S]GTPγS binding experiments were performed as previously described,5,6 with modifications. Briefly the rat brain membrane homogenates containing ~10 µg/mL protein were incubated at 30 °C for 60 min in Tris-EGTA buffer (pH 7.4) composed of 50 mM Tris-HCl, 1 mM EGTA, 3 mM MgCl2, 100 mM NaCl, containing 20 MBq/0.05 cm3 [35S]GTPγS (0.05 nM) and […]
compound 9 together with excess GDP (30 µM) in a final volume of 1 mL. Total binding was measured in the absence of test compounds, non-specific binding was determined in the presence of 10 µM unlabelled GTPγS. The bound and unbound [35S]GTPγS was separated as described in the […]
competition binding assays section through Whatmann GF/B glass fibers. The radioactivity of the filters was also detected as described above. [35S]GTPγS binding experiments were performed in triplicates and repeated at least three times.
The specific binding of all radiolabeled compounds was calculated by the subtraction of non-specific binding from total binding and was given in percentage. The data was normalized to total specific binding, which was settled 100%, which in case of [35S]GTPγS also represents the basal activity of the G-protein. Experimental data were presented as means ± S.E.M in the function of the applied ligand concentration range in logarithm form. Points were fitted with the professional curve fitting program, GraphPad Prism 5.0 (GraphPad Prism Software Inc., San Diego, CA), using non-linear regression. In the radioligand competition binding assays the ‘One-site competition’, while in [35S]GTPγS binding assays the ‘Sigmoid dose-response’ equation was applied to determine IC50 (unlabeled ligand affinity) and the maximum G-protein efficacy (Emax) and ligand potency (EC50), respectively. For IC50 and EC50 values standard error is only given in their logarithm form by the curve fitting program due to the data representation. In competition binding experiments the Ki value was calculated according to Cheng-Prusoff equation.7 […]
binding assays. In figure B, 5 is indicated again for better comparison. Figures represents the specific binding of [35S]GTPγS in percentage in the presence of increasing concentrations (10-10-10-5 M) of the indicated ligands in rat brain membrane homogenates. “Basal” on the x-axis indicates the basal activity of the monitored G-protein, which is measured in the absence of the compounds and also represents the total specific binding of [35S]GTPγS. The level of basal activity was defined as 100% and is presented with a dotted line. Points represent means ± S.E.M. for at least three experiments performed in triplicate.

[1] = target: T1, cannabinoid receptors (CBR) (Rattus norvegicus, UniProt P20272); assay: biochemical; type: binding
T1 construct: a: performed in rat whole brain membrane homogenates; from tissue; host or cells: Wistar rat whole brain membrane homogenate
Description: Tris-HCl, EGTA, NaCl, MgCl2 x 6H2O, GDP, the GTP analogue GTPγS, were purchased from Sigma-Aldrich (Budapest, Hungary). Fatty acid free bovine serum albumin (BSA) was purchased from Serva (Heidelberg, Germany). Naloxone was kindly provided by the company Endo Laboratories DuPont de Nemours (Wilmington, DE, USA). HS665 was provided by Schmidhammer’s group (University of Innsbruck, Austria). […]
purchased from Tocris Bioscience (Bristol, UK).
DMSO. All compounds were stored in 1 mM stock solution at -20 °C. The radiolabelled GTP analogue, [35S]GTPγS (specific activity: 1000 Ci/mmol) were purchased from Hartmann Analytic (Braunschweig, Germany). [3H]DAMGO (specific activity: 38.8 Ci/mmol),12 [3H]IleDelt II (specific activity: 19,6 Ci/mmol), [3H]WIN55,212-2 (specific activity: 13,1 Ci/mmol) and [3H]HS665 (specific activity: 36.62 Ci/mmol),3 were radiolabeled by the Laboratory of Chemical Biology group in BRC (Szeged, Hungary).
For membrane homogenate preparations male and female Wistar rats (250-300 g body weight) and male guinea pigs (~700 g body weight, LAL/HA/BR strain) were used. Rats were housed in the local animal house of BRC (Szeged, Hungary), while guinea pigs were housed in LAB-ÁLL Bt.
(Budapest, Hungary). All the animals were kept in a temperature controlled room (21-24 °C) under a 12:12 light and dark cycle and were provided with water and food ad libitum. All housing and experiments were conducted in accordance with the European Communities Council Directives (2010/63/EU) and the Hungarian Act for the Protection of Animals in Research (XXVIII.tv. 32.§).
The total number of animals as well as their suffering was minimized.
Rat and guinea pig brain membrane homogenate preparation for binding assays Rats and guinea pigs were decapitated and their brains were quickly removed. The brains were prepared for membrane preparation as previously described,4 and partly used for binding experiments and partly were further prepared for the [35S]GTPγS binding experiments. Briefly the brains were homogenized, centrifuged in ice-cold 50 mM Tris-HCl (pH 7.4) buffer and incubated at 37 °C for 30 min in a shaking water-bath. After incubation the centrifugation was repeated as described above and the final pellet was suspended in 50 mM Tris-HCl pH 7.4 buffer containing 0.32 M sucrose, and stored at -80 °C. For the [35S]GTPγS binding experiments the final pellet of rat […]
brain membrane homogenate was suspended in ice-cold TEM (Tris-HCl, EGTA, MgCl2) and stored at -80 °C for further use.
Radioligand competition binding experiments
Aliquots of frozen rat brain membrane homogenates were centrifuged (18 000 rpm, 20 min, 4 °C) to remove sucrose and the pellets were suspended in 50 mM Tris-HCl buffer (pH 7.4). Membranes containing 0.4-0.8 mg/mL of protein were incubated in a final volume of 1 mL in the presence of unlabeled 5, 10 and 9 in increasing concentrations (10-11-10-5 M) in the presence of the appropriate radioligand in ~1 nM concentrations at certain temperature and amount of time depending on the radioligand ([3H]DAMGO and [3H]IleDelt II: 35 °C for 45 min; [3H]HS665: 30 °C, 45 min; [3H]WIN55,212-2: 30 °C for 60 min). Experiments performed with [3H]HS665 where incubated […]
more kappa receptors than the rat brain), while the rest of the radioligands were incubated together with rat whole brain membrane homogenates. Additionally, in experiments performed with […]
increasing concentrations (10-11-10-5 M) together with 50 mM Tris/HCl, 2.5 mM EGTA, 5 mM MgCl2 and 0.5 mg/mL fatty acid free BSA (pH 7.4). The level of non-specific binding was […]
binding was determined in the absence of unlabeled compounds. The reaction was terminated by rapid filtration under vacuum (Brandel M24R Cell Harvester), and washed three times with 5 mL ice-cold 50 mM Tris-HCl or 50 mM Tris/HCl, 2.5 mM EGTA, 5 mM MgCl2, 0.5 % BSA (pH 7.4) in case of [3H]WIN55,212-2. The filtration was accomplished through Whatman GF/C ([3H]DAMGO, [3H]IleDelt II and [3H]HS665) or GF/B ([3H]WIN55,212-2) glass fibers. In case of […]

[2] = rat whole brain membrane homogenates, Cheng-Prusoff, read-out: Ki, [3H]WIN55,212 (CBR)
[3] = rat whole brain membrane homogenates, logarithm of IC50, negative sign printed, read-out: logIC50 ± S.E.M., [3H]WIN55,212 (CBR) (converted)

T1 sequence (P20272 whole entry): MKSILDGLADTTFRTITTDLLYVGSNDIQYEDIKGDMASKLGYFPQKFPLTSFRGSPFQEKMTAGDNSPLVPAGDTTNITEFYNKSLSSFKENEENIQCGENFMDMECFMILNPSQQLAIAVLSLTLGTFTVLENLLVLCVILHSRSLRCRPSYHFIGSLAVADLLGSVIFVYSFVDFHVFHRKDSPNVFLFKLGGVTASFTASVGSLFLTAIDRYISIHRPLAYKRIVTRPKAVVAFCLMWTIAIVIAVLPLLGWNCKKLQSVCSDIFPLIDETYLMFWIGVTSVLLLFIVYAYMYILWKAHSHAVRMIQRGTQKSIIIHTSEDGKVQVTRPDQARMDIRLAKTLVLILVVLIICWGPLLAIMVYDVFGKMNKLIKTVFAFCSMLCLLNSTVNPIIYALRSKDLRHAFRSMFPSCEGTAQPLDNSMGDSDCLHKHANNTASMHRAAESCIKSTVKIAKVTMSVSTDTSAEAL

SMILES	EC50 (G-protein)	Emax ± S.E.M. (maximal G-protein efficacy) (G-protein)	LogEC50 ± S.E.M. (ligand potency) (G-protein)	Ki [1, 2]	IC50 [1, 3]	IC50 [1]	Ki [1]
Cc1c(C(=O)NC2CCN(C(=O)OC(C)(C)C)CC2)nn(-c2ccc(Cl)cc2Cl)c1-n1cccc1 [Compound 3]	2690 nM	12.78 ± 8.48%	−5.57 ± 0.15	193 nM	295 nM		
Cc1c(C(=O)NC2CCCCC2)nn(-c2ccc(Cl)cc2Cl)c1-n1cccc1 [Compound 4]	1870 nM	55.95 ± 8.44%	−5.72 ± 0.3			575 nM	370 nM
Cc1c(C(=O)NN2CCCCC2)nn(-c2ccc(Cl)cc2Cl)c1-n1cccc1 [Compound 1]	1620 nM	26 ± 5.27%	−5.78 ± 0.11			195 nM	126 nM
Cc1c(C(=O)NN2CCCCC2)nn(-c2ccc(Cl)cc2Cl)c1-c1ccc(Cl)cc1 [Rimonabant, reference compound]	2200 nM	17.5 ± 5.72%	−5.65 ± 0.12				
Cc1c(C(=O)N2CCN(C(=O)OCc3ccccc3)CC2)nn(-c2ccc(Cl)cc2Cl)c1-n1cccc1 [Compound 2]	1540 nM	22.95 ± 4.3%	−5.81 ± 0.09	710 nM	1100 nM		
